Where two headings read alike, the source gives them in different places.
How the values were obtained:
[1] = Serum PTH pharmacokinetics after oral and buccal administration to rats; format: in vivo, Male Sprague Dawley rats; details: rat, 0.2 mg/kg PTH with 200 mg/kg monosodium 4-MOAC; for AUC(0-inf) / AUC(0-t) / Cmax / Tmax: male, Sprague Dawley, serum, 0.2 mg/kg
Protocol: A stock solution of human recombinant PTH (1-34) was prepared by dissolving hPTH (1-34) (Eli Lilly, Indianapolis, Ind.) in deionized water to a concentration of 4 mg/ml. A stock solution of delivery agent was prepared by dissolving the delivery agent in deionized water. The pH of the resulting delivery agent solution was adjusted to between 7.5 and 8.5. A liquid buccal dosage form was prepared by mixing the PTH stock solution with the delivery agent stock solution immediately prior to dosing. For the present example, four dosage forms were prepared as described below.
The dosage forms were administered to Male Sprague Dawley rats, ranging in weight from about 250 g to about […]. Each rat was anesthesized with 2% isofiurane in pure oxygen during the whole experiment. The femoral artery was cannulated for blood sampling. The esophagus was ligated to prevent wallowing of the dosing solution. The trachea was intubated and the rat was provided with a constant flow of 2% isofiurane in oxygen.
The liquid dosage form was administered by inserting a T-shaped dosing tool into the mouth of the rat. The center of the dosing tool was placed under the tongue and the liquid dosage form (approximately […] body weight) was administered by syringe through the dosing tool, such that the dosage was distributed evenly throughout the buccal area. Following administration, the mouth was glued shut. Blood samples were drawn at predetermined periods from the femoral artery and assayed for PTH. The liquid dosage solution was allowed to remain in the buccal area for 90 minutes (e.g., the dosing duration). After 90 minutes the liquid dosage solution was removed from the buccal area by syringe.
The concentration of PTH was determined using a PTH (1-34) immunradiometric assay kit (Immutopics, San Clemente, Calif.). Samples were prepared by storage for 20 minutes between 2° C. and 8° C., followed by centrifugation at 10,000 G for 10 minutes to obtain serum. The serum concentration of PTH was than determined using a PTH (1-34) immunradiometric assay kit.
A liquid dosage form was prepared as described above wherein the dosage amount of monosodium 4-MOAC was 200 mg/kg and the dosage amount of PTH was 0.2 mg/kg. The dosage form was administered buccally as described above. Oral administration was carried out by anesthetizing the rat with a mixture of ketamine (44 mg/kg) and thorazine (1.5 mg/kg), followed by administration of the oral dosage by a gavaging trocar. The dosing duration for buccal administration was 5 and 60 minutes respectively. Blood samples were drawn from the rat as described above and the serum concentration of PTH was determined as described previously.

[2] = Pharmacokinetics after buccal, oral and subcutaneous administration of PTH to dogs; format: in vivo; details: dog; for AUC(0-t) / Cmax / Tmax / F rel: in vivo; for F rel: bioavailability relative to subcutaneous administration, read-out: AUC0−>t BA (%)
Protocol: The animal was moderately sedated using 0.4-0.8 mg/kg midazolam (IM) and 0.03-0.04 mg/kg medetomidine IV or IM in order to minimize the risk of the animal swallowing the test material. The level of sedation was continuously monitored and respiratory rate and general activity level was noted. Once adequately sedated, the dog was moved to a flat surface and an intravenous catheter was placed in the cephalic vein. For dose application, the dog was placed on its side with its head and jaw angled to maximally hold the test material in the mouth.
For an aqueous dosing solution, a syringe filled with the dosing solution (up to 1.5 ml) was placed sublingually and infused slowly up to 0.75 ml in an equal amount at the right and left space under the tongue of the dog. For sublingual tablet, the tablets were placed under the tongue and up to 1.5 ml of saline was administered to facilitate the sublingual dissolution. On one hour post-administration, any remaining formulation was removed by syringe aspiration and the area was rinsed once with saline solution and the saline solution that was then removed by a syringe aspiration.
Once the animal recovered from the sedatives, restraint-acclimated animals was restrained using a sling for the duration of the experiment. Blood samples were collected at specific time-points, i.e., 0, 0.25, 0.5, 1, 1.5, 2, 2.5 and up to 4 hours.
For comparison of the dosing route with intraoral delivery, an oral tablet dosing study was followed. The equivalent dose of drug and carrier was prepared to be the oral formulation of tablets that were gavaged, and 1 ml of water was administered into the gavaging tubing.
The final two columns in Table 2 show the relative bioavailability to subcutaneous administration by buccal and oral administrations of PTH to dog, and the respective coefficient of variations.

[3] = buccal 5 min dosing duration versus oral
[4] = buccal 60 min dosing duration versus oral
[5] = buccal (sublingual), formulation removed one hour post-administration

AUC(0-inf) ([1]; buccal, 5 min dosing duration): 2.8 ng·h/mL
AUC(0-t) ([1]; buccal, 5 min dosing duration): 0.975 ng·h/mL
Cmax ([1]; buccal, 5 min dosing duration): 1.7 ng/mL
Tmax ([1]; buccal, 5 min dosing duration): 5 min
AUC(0-inf) ([1]; buccal, 60 min dosing duration): 3.44 ng·h/mL
AUC(0-t) ([1]; buccal, 60 min dosing duration): 1.29 ng·h/mL
Cmax ([1]; buccal, 60 min dosing duration): 1.82 ng/mL
Tmax ([1]; buccal, 60 min dosing duration): 15 min
AUC(0-inf) ([1]; po, oral gavage): 2.62 ng·h/mL
AUC(0-t) ([1]; po, oral gavage): 10.4 ng·h/mL
Cmax ([1]; po, oral gavage): 1.43 ng/mL
Tmax ([1]; po, oral gavage): 15 min
Buccal:Oral AUC0−>t Ratio [1, 3]: 0.94
Buccal:Oral AUC0−>∞ Ratio [1, 3]: 1.1
Buccal:Oral AUC0−>t Ratio [1, 4]: 1.2
Buccal:Oral AUC0−>∞ Ratio [1, 4]: 1.3
AUC0−>t BA (%) ([2]; subcutaneous (reference route)): 100%
AUC(0-t) ([2]; sc, subcutaneous): 8.47 ng·h/mL
Cmax ([2]; sc, subcutaneous): 6.39 ± 1.97 ng/mL
Tmax ([2]; sc, subcutaneous): 26 min
AUC(0-t) [2, 5]: 2.82 ng·h/mL
Cmax [2, 5]: 3.35 ± 2.65 ng/mL
Tmax [2, 5]: 62 min
F rel ([2]; buccal): 3.3%
AUC(0-t) ([2]; oral tablets gavaged): 0.41 ng·h/mL
Cmax ([2]; oral tablets gavaged): 0.632 ± 0.568 ng/mL
Tmax ([2]; oral tablets gavaged): 23 min
F rel ([2]; oral): 4.8%
SMILES: CC[C@H](C)[C@H](NC(=O)[C@H](CCC(=O)O)NC(=O)[C@H](CO)NC(=O)[C@@H](NC(=O)[C@@H](N)CO)C(C)C)C(=O)N[C@@H](CCC(N)=O)C(=O)N[C@@H](CC(C)C)C(=O)N[C@@H](CCSC)C(=O)N[C@@H](Cc1cnc[nH]1)C(=O)N[C@@H](CC(N)=O)C(=O)N[C@@H](CC(C)C)C(=O)NCC(=O)N[C@@H](CCCCN)C(=O)N[C@@H](Cc1cnc[nH]1)C(=O)N[C@@H](CC(C)C)C(=O)N[C@@H](CC(N)=O)C(=O)N[C@@H](CO)C(=O)N[C@@H](CCSC)C(=O)N[C@@H](CCC(=O)O)C(=O)N[C@@H](CCCN=C(N)N)C(=O)N[C@H](C(=O)N[C@@H](CCC(=O)O)C(=O)N[C@@H](Cc1c[nH]c2ccccc12)C(=O)N[C@@H](CC(C)C)C(=O)N[C@@H](CCCN=C(N)N)C(=O)N[C@@H](CCCCN)C(=O)N[C@@H](CCCCN)C(=O)N[C@@H](CC(C)C)C(=O)N[C@@H](CCC(N)=O)C(=O)N[C@@H](CC(=O)O)C(=O)N[C@H](C(=O)N[C@@H](Cc1cnc[nH]1)C(=O)N[C@@H](CC(N)=O)C(=O)N[C@@H](Cc1ccccc1)C(=O)O)C(C)C)C(C)C [PTH, human recombinant PTH (1-34)]

— US8110547B2, “Compositions for buccal delivery of parathyroid hormone” (Emisphere Technologies, Inc., priority 2005, dated 2012)
